# Laboratory results from patent publication US20250186536A1, “SUSTAINED RELEASE PEPTIDE FORMULATIONS” (RHYTHM PHARMACEUTICALS, INC., priority 2017, published 2025).
# Experiments:
# [1] = Part A single-dose pharmacokinetics of long-acting setmelanotide formulation in healthy obese subjects; type: in vivo, human; details: for AUC(0-inf) / Cmax / Tmax / half-life: human, plasma; for Tmax: read-out: median tmax
# Method: (§1) In order to assess the pharmacokinetics of setmelanotide, a two part study was carried out comprising single dose administration (Part A) and multiple dose administration (Part B) with healthy obese subjects.
# (§2) Part A was a rising-dose, placebo-controlled study including up to 3 sequential panels. For each panel, 10 normal obese subjects in good health between the ages of 21 and 54 were assigned to randomly-ordered treatments which included 8 active and 2 placebo treatments. Data acquired from Part A were used to determine the dose and dosing regimen for Part B. In Part B, 12 normal healthy obese patients were randomly assigned to receive either 6 active and 6 placebo treatments. Subjects received once weekly subcutaneous injection of the assigned formulation for 4 weeks. Patients in Part B were housed in the clinical unit for the 28 days.
# (§3) Setmelanotide was formulated in a sterile liquid polar lipid phase consisting of soy phosphatidylcholine, glycerol dioleate, ethanol and citrate buffer. Without being bound by theory, the setmelanotide formulation behaves in a long-acting fashion, wherein when injected subcutaneously, aqueous body fluid is absorbed by the lipid phase to form a gel like depot consisting of liquid crystals formed in situ.
# 10 normal obese subjects enrolled for each dose level of Part A; 8 received active drug, and 2 received placebo. There were 3 dose levels used in the single dose phase which were administered according to the sequential, rising dose design. The single setmelanotide doses administered were in sequence: 2.5 mg, 10 mg, and 30 mg. Setmelanotide concentrations were analyzed and safety was assessed before the next higher dose level was started. The drug was administered subcutaneously on the morning of dosing. Blood samples were collected prior to dosing and at 0.5, 1, 2, 3, 4, 6, 8, 10, 12, 16, 24, 30, and 36 hours post-dose (in the clinic), then at approximately 48, 60, 72, 96, 120, 168, 240, and 336 hours post-dose as outpatients. Based on the PK analysis of the first dose, additional blood samples were included for the 30 mg dose at 21 ([…]) and 28 ([…]) days post-dose. The actual times of blood collection were recorded.
# [2] = Part B multiple-dose pharmacokinetics (once weekly for 4 weeks) in obese subjects; type: in vivo, human
# Method: as §1, §2, §3
# Twelve (12) obese subjects were enrolled in Part B; 6 received active drug, and 6 were given placebo. Based on results from Part A, setmelanotide 10 mg once weekly was selected as the dose for Part B. Subjects were housed in the clinical facility for the entire 4 weeks of study. Qualified subjects entered the clinical facility the evening before the first dose. Subjects assigned to active treatment received setmelanotide 10 mg subcutaneously in the morning on Day 1. Placebo subjects received the same volume of the placebo injection as the active treatment. Subjects were fasting from the evening before to 4 hours after dosing. Standard lowfat meals were served. Subjects were also dosed on Days 8, 15, and 22 with the treatment given on Day 1.
# Blood samples were collected at a time before dosing and at 0.5, 1, 2, 3, 4, 6, 8, 10, 12, 16, 24, 30, 36, 48, 60, 72, 96, 120, 168, 240, and 336 hours during Week 1 and during Week 4. The actual sampling times were recorded. In addition, blood samples were collected at a time just before dosing for trough setmelanotide concentrations for evaluating the attainment of steady state.
# [3] = Stability analysis of setmelanotide formulations (degradation by HPLC); type: physicochemical
# Method: Components of exemplary setmelanotide formulations were varied in order to assess their impact on the stability of setmelanotide over time. In a first study, setmelanotide formulations were prepared as described in Example 2 with 30 mg/mL setmelanotide using different forms of GDO: 1) GDO of commercial purity; 2) GDO of commercial purity, which has been further purified to remove fatty acid compounds; and 3) synthetic GDO. The formulations were stored in 1 mL glass syringes equipped with staked stainless steel […] and rubber plungers at 40° C. for up to three months.
# The effect of EDTA concentration on setmelanotide degradation was also investigated in a second study. Syringes containing setmelanotide formulations with higher EDTA along with GDO of varying sources were prepared, and setmelanotide degradation was quantified by HPLC over time. The results of this study are depicted in FIG. 6, and indicate that higher concentrations of EDTA have a small effect on setmelanotide stability in the presence of either GDO of commercial purity or synthetic GDO.
# In a third study, the effect of setmelanotide and EDTA concentrations were explored in the presence of synthetic GDO.
# [4] = 10 mg SC once weekly for 4 weeks
smiles,measurement,setting,value
CC(=O)N[C@@H](CCCNC(=N)N)C(=O)N[C@H]1CSSC[C@@H](C(N)=O)NC(=O)[C@H](Cc2c[nH]c3ccccc23)NC(=O)[C@H](CCCNC(=N)N)NC(=O)[C@@H](Cc2ccccc2)NC(=O)[C@H](Cc2c[nH]cn2)NC(=O)[C@@H](C)NC1=O [setmelanotide],dose proportionality of AUC∞,[1]; 2.5 mg dose,less than proportional
same,dose proportionality of AUC,[1]; 10 mg and 30 mg doses,proportional
same,dose proportionality of Cmax,[1]; 2.5 to 30 mg dose range,roughly proportional
same,AUC(0-inf),[1]; single SC dose 2.5 mg,92.9 ng·h/mL
same,Cmax,[1]; single SC dose 2.5 mg,2.92 ng/mL
same,Tmax,[1]; single SC dose 2.5 mg,3.5 h
same,AUC(0-inf),[1]; single SC dose 10 mg,1140 ng·h/mL
same,Cmax,[1]; single SC dose 10 mg,11.5 ng/mL
same,half-life,[1]; single SC dose 10 mg,123 h
same,Tmax,[1]; single SC dose 10 mg,4 h
same,AUC(0-inf),[1]; single SC dose 30 mg,3470 ng·h/mL
same,Cmax,[1]; single SC dose 30 mg,34.1 ng/mL
same,half-life,[1]; single SC dose 30 mg,159 h
same,Tmax,[1]; single SC dose 30 mg,6 h
same,time by which all values were below quantifiable,[1]; single SC dose 2.5 mg,≤ 96 h
same,time past which profile was defined,[1]; single SC dose 10 mg,> 168 h
same,time past which profile was defined,[1]; single SC dose 30 mg,> 168 h
same,earliest plasma sample time in which setmelanotide appeared,"[1]; single SC dose, generally",0.5 h
same,time measurable in plasma after dosing,"[1]; single SC dose, generally",≥ 2 weeks
same,time to maximum concentrations after dosing,"[1]; single SC dose, generally over the three dose levels",about 4 hours
same,early burst effect or dose dumping,[1]; single dose administration,no early burst effect or dose dumping
same,lag-time of absorption,[1]; single dose administration,little to no lag-time
same,accumulation index,[2]; [4],1.46
same,lag in absorption,[2]; [4],no lag in absorption
same,"attainment of steady state (trough concentrations, visual inspection)","[2]; 10 mg SC once weekly, 4 weekly doses",attained during Week 4
same,Cmax,"[2]; human, plasma, 10 mg SC once weekly for 4 weeks",11.4 ng/mL
same,level at 168 h,"[2]; human, plasma, 10 mg SC once weekly for 4 weeks, end of 1-week dosing interval, read-out: mean concentration at 168 hours",2.92 ng/mL
same,Tmax,"[2]; human, plasma, 10 mg SC once weekly for 4 weeks, read-out: median tmax",4 h
same,setmelanotide degradation,"[3]; 15 mg/mL formulations compared with 30 mg/mL formulations, synthetic GDO",higher levels of degradation
same,setmelanotide degradation,"[3]; 30 mg/mL formulation prepared with synthetic GDO vs GDO of commercial purity or further purified, 40° C. up to three months, HPLC",lower amount
same,effect of higher EDTA concentration on setmelanotide stability,"[3]; GDO of commercial purity or synthetic GDO, HPLC over time",small effect
same,effect of increasing EDTA concentration on degradation,"[3]; as setmelanotide concentration decreases, synthetic GDO",greater effect
